In PMC2613801 (Bioorganic & medicinal chemistry, 2008):

Assays:
[1] = biological target: human A3 adenosine receptor; details: read-out: Ki value at the A3 receptor; ref [30]; cited from earlier work
TRPV1 [2] = biological target: T1, TRPV1 (Rattus norvegicus, UniProt O35433); experiment: capsaicin-induced 45Ca2+-uptake in TRPV1ε-NIH3T3 cells; assay type: cell-based; details: for enhancing activity (in words): in presence of 2 µM capsaicin; for Hill Slope ± SEM: enhancement of 45Ca2+-uptake in presence of 2 µM capsaicin
T1 sequence (O35433 whole entry): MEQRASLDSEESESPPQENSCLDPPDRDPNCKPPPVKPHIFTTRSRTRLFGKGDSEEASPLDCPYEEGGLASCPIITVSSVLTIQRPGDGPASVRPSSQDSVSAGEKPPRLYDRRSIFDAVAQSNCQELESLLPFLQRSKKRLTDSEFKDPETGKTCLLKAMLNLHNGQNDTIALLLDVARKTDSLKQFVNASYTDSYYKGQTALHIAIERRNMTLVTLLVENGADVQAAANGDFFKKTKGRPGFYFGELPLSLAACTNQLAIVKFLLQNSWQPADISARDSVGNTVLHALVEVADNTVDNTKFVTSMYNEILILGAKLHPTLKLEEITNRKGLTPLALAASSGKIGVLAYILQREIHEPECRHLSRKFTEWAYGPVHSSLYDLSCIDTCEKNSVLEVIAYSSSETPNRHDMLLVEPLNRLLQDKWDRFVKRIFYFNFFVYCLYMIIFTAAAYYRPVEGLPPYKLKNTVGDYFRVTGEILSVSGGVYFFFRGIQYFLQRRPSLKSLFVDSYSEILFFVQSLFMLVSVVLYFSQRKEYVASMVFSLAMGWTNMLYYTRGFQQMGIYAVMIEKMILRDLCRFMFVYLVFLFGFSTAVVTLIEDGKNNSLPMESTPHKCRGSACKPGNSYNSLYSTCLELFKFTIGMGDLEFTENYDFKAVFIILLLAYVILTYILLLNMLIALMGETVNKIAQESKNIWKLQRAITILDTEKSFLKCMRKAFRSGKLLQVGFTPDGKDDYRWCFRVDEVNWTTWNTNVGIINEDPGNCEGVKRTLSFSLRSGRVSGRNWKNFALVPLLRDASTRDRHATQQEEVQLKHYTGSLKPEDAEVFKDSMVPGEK

TRPV1 [3] = biological target: T1, TRPV1; experiment: capsaicin-induced 45Ca2+-uptake in primary dorsal root ganglion; assay type: cell-based; details: for enhancing activity (in words) / Hill Slope ± SEM: primary DRG cells; for enhancing activity (in words): in presence of capsaicin; for Hill Slope ± SEM: ~0.5 µM capsaicin, single assay run in quadruplicate wells
TRPV1 [4] = biological target: T1, TRPV1; experiment: intracellular Ca2+ imaging; assay type: cell-based

Structure (SMILES)	enhancing activity (in words) (TRPV1 [2])	Hill Slope ± SEM (TRPV1 [2])	further results
COC(=O)C1=C(C)NC(C)=C(C(=O)OCCN(C)Cc2ccccc2)C1c1cccc([N+](=O)[O-])c1 (stereo not shown) [nicardipine, reference compound]	not enhancers		Ki [1]: 3.25 µM; enhancing activity (in words) (TRPV1 [3]): not enhancers
CCCC1C(C(=O)SCCc2ccccc2)=C(C)NC(c2ccccc2)=C1C(=O)OCC (racemic) [Compound 26, 3-(2-Phenylethylthio)-5-ethyl-2-methyl-4-propyl-6-phenyl-1,4-(±)-dihydropyridine-3,5-dicarboxylate]		1.14 ± 0.32	
CCOC(=O)C1=C(C)NC(c2ccccc2)=C(C(=O)OCc2ccccc2)C1C#Cc1ccccc1 (stereo not shown) [MRS1191, 1,4-dihydro-2-methyl-6-phenyl-4-(phenylethynyl)-3,5-pyridinedicarboxylic acid, 3-ethyl 5-(phenylmethyl) ester, reference compound]	no enhancing effect		
CCOC(=O)C1=C(C)NC(c2cccc(F)c2)=C(C(=O)OCC)C1CC (racemic) [Compound 10, 3,5-Diethyl-2-methyl-4-ethyl-6-(3-fluorophenyl)-1,4-(±)-dihydropyridine-3,5-dicarboxylate]		1.98 ± 0.30	EC50 (TRPV1 [3]): 20.5 ± 1.1 µM; Hill Slope ± SEM (TRPV1 [3]): 2.64 ± 0.59
CCOC(=O)C1=C(c2ccc(F)cc2)NC(C)=C(C(=O)SCCc2ccccc2)C1CC (racemic) [Compound 29, 3-(2-Phenylethylthio)-5-ethyl-2-methyl-4-ethyl-6-(4-fluorophenyl)-1,4-(±)-dihydropyridine-3,5-dicarboxylate]	slightly active	1.18 ± 0.25	
CCOC(=O)C1=C(c2cccc(F)c2)NC(C)=C(C(=O)SCC)C1CC (racemic) [Compound 14, 3-Ethylthio-5-ethyl-2-methyl-4-ethyl-6-(3-fluorophenyl)-1,4-(±)-dihydropyridine-3,5-dicarboxylate]	strong, dosedependent effects	1.59 ± 0.33	
CCOC(=O)C1=C(c2ccccc2)N=C(C)/C(=C(/O)SCCOC)C1CC (stereo not shown) [Compound 23]	strong, dosedependent effects	1.79 ± 0.17	peak ratio (340/380, normalized to baseline) (TRPV1 [4]; 200 nM capsaicin in the presence of 10 µM 23, 30 sec, 69 cells): 1.701±0.001; fold increase in calcium influx (TRPV1 [2]; 2 µM capsaicin): 5.3 fold
CCOC(=O)C1=C(C2CCCCC2)NC(C)=C(C(=O)SCC)C1CC (racemic) [Compound 17, 3-Ethylthio-5-ethyl-2-methyl-4-ethyl-6-cyclohexyl-1,4-(±)-dihydropyridine-3,5-dicarboxylate]	inactive		
CCOC(=O)C1=C(C)NC(c2ccc(F)cc2)=C(C(=O)OCC)C1CC (racemic) [Compound 11, 3,5-Diethyl-2-methyl-4-ethyl-6-(4-fluorophenyl)-1,4-(±)-dihydropyridine-3,5-dicarboxylate]		1.86 ± 0.42	EC50 (TRPV1 [3]): 15.7 ± 1.3 µM; Hill Slope ± SEM (TRPV1 [3]): 2.01 ± 0.77
COc1cc(CNC(=O)CCCC/C=C/C(C)C)ccc1O [capsaicin, reference compound]			peak ratio (340/380, normalized to baseline) (TRPV1 [4]; 200 nM capsaicin alone, 30 sec, 98 cells): 1.518±0.001; ED100 for capsaicin activation of TRPV1 (TRPV1 [2]; pH 7.5): ~ 2 µM
CCOC(=O)C1=C(c2ccc(F)cc2)NC(C)=C(C(=O)SCC)C1CC (racemic) [Compound 15, 3-Thioethyl-5-ethyl-2-methyl-4-ethyl-6-(4-fluorophenyl)-1,4-(±)-dihydropyridine-3,5-dicarboxylate]		1.82 ± 0.33	
CCOC(=O)C1=C(c2ccc([N+](=O)[O-])cc2)NC(C)=C(C(=O)SCc2ccccc2)C1CC (racemic) [Compound 31]	neutral		enhancing activity (in words) (TRPV1 [3]): inactive
CCOC(=O)C1=C(C)NC(c2cccc(Cl)c2)=C(C(=O)OCC)C1CC (racemic) [Compound 9, 3,5-Diethyl-2-methyl-4-ethyl-6-(3-chlorophenyl)-1,4-(±)-dihydropyridine-3,5-dicarboxylate]		1.45 ± 0.28	Hill Slope ± SEM (TRPV1 [3]): 2.24 ± 0.53
CCCC1C(C(=O)OCC)=C(c2ccccc2)N=C(C)/C1=C(/O)SCC (stereo not shown) [Compound 18]	strong, dosedependent effects	1.38 ± 0.23	EC50 (TRPV1 [3]): 10.5 ± 1.1 µM; Hill Slope ± SEM (TRPV1 [3]): 1.47 ± 0.16
CCOC(=O)C1=C(c2ccccc2)N=C(C)/C(=C(/O)SCC)C1CC (stereo not shown) [Compound 12]		1.55 ± 0.17	
CO/C(O)=C1\C(C)=NC(C)=C([N+](=O)[O-])[C@H]1c1ccccc1C(F)(F)F [S(–)-Bay K 8644, reference compound]	not enhancers		enhancing activity (in words) (TRPV1 [3]): not enhancers
